Test results taken from patent US10961200B2, “Small molecule inhibitors of lactate dehydrogenase and methods of use thereof” (THE UNITED STATES OF AMERICA, AS REPRESENTED BY THE …, priority 2014, dated 2021).

Tests used:
[1] = target: Human LDHA (Homo sapiens (Human), UniProt P00338); test: human LDHA primary biochemical assay (resazurin/diaphorase coupled, fluorescence); conditions: LDHA inhibitory activity
Excerpt: Test compounds were placed in a Greiner Bio-One (Monroe, N.C.) 1536-well black solid bottom assay plate. 200 millimolar (mM) Tris HCl, pH 7.4, 100 micromolar […] EDTA and 0.01% TWEEN-20™, final concentration, was used as the assay buffer. The LDHA reagent was 2 nanomolar (nM) Human LDHA (Meridian Life Science, Inc., Memphis, Tenn.), final concentration, in assay buffer.

[2] = test system: MiaPaCa2 cells; test: cell-based HT lactate assay, colorimetric/fluorometric detection (inhibition of lactate production); conditions: class symbols, 0 to 3 pluses
Protocol: Cell-based HT Lactate assay is a miniaturized Biovision Lactate Colorimetric/Fluorometric Assay Kit (Cat #K607-100). The assay is roughly a 3.5 hour assay run in a 1536 plate format. Cell number optimization should be run for each cell line to achieve an optimal number in which lactate production equals roughly 90% of the standard curve range. Cell number per well optimization has been performed with the following cell lines: MiaPaCa2—500 cells/well, SNU398—500 cells/well, and P493—500 cells/well.
The lactate activity in Table 8 is represented by 0 to 3 pluses as follows: +++<1 μM; ++1-10 μM; +10-57 μM; and −>57 μM.

[3] = assay of Example 1, activity level classes
[4] = activity level based on IC50 (Table 7)

Cc1ccc(-c2cc(-c3nn(-c4nc(C(=O)O)cs4)c(CC4CC4)c3Cc3ccc(S(N)(=O)=O)c(F)c3)ccc2F)cc1 [Compound 288]
IC50 [1, 3]: < 100 nM
IC50 [2]: < 1000 nM

NS(=O)(=O)c1ccc(Cc2c(-c3ccc(F)c(Br)c3)nn(-c3nc(C(=O)O)cs3)c2CC2CC2)cc1 [Compound 296]
IC50 [1, 3]: < 100 nM
IC50 [2]: 1000 to 10000 nM

N[S+](=O)([O-])c1ccc(Cc2c(-c3ccc(F)c(C#CCCO)c3)nn(-c3nc(C(=O)O)cs3)c2CC2CC2)cc1F [Compound 409]
IC50 [1, 4]: < 100 nM
IC50 ([2]; Homo sapiens, MIA PaCa-2): 1000 to 10000 nM

COc1cccc(-c2cc(-c3nn(-c4nc(C(=O)O)cs4)c(C4CC4)c3Cc3ccc(S(N)(=O)=O)c(F)c3)ccc2F)c1 [Compound 252]
IC50 [1, 3]: < 100 nM
IC50 [2]: 1000 to 10000 nM

CC1(C#Cc2cc(-c3nn(-c4nc(C(=O)O)cs4)c(CC4CC4)c3Cc3ccc(S(N)(=O)=O)c(F)c3)ccc2F)COC1 [Compound 416]
IC50 [1, 4]: < 100 nM
IC50 [2]: 1000 to 10000 nM

N[S+](=O)([O-])c1ccc(Cc2c(-c3ccc(F)c(C#CCC4CCCC4)c3)nn(-c3nc(C(=O)O)cs3)c2CC2CC2)cc1F [Compound 411]
IC50 [1, 4]: < 100 nM
IC50 [2]: < 1000 nM

NS(=O)(=O)c1ccc(Cc2c(-c3ccccc3)nn(-c3nc(C(=O)O)cs3)c2C#CC2CC2)cc1 [Compound 160, 2-(5-(cyclopropylethynyl)-3-phenyl-4-(4-sulfamoylbenzyl)-1H-pyrazol-1-yl)thiazole-4-carboxylic acid]
IC50 [1, 3]: < 100 nM
IC50 ([2]; Homo sapiens, MIA PaCa-2): 1000 to 10000 nM

Cc1ccc(C#Cc2cc(-c3nn(-c4nc(C(=O)O)cs4)c(CC4CC4)c3Cc3ccc(S(N)(=O)=O)c(F)c3)ccc2F)s1 [Compound 408]
IC50 [1, 4]: < 100 nM
IC50 [2]: < 1000 nM

NS(=O)(=O)c1ccc(Cc2c(-c3ccc(F)c(C#CC4(F)CCCC4)c3)nn(-c3nc(C(=O)O)cs3)c2CC2CC2)cc1F [Compound 436]
IC50 [1, 4]: < 100 nM
IC50 [2]: < 1000 nM

NS(=O)(=O)c1ccc(Cc2c(-c3ccc(F)c(OCC4CCOC4)c3)nn(-c3nc(C(=O)O)cs3)c2CC2CC2)cc1F (centres unmarked) [Compound 470, 2-(5-(cyclopropylmethyl)-3-(4-fluoro-3-((tetrahydrofuran-3-yl)methoxy)phenyl)-4-(3-fluoro-4-sulfamoylbenzyl)-1H-pyrazol-1-yl)thiazole-4-carboxylic acid]
IC50 [1, 4]: < 100 nM
IC50 ([2]; Homo sapiens, MIA PaCa-2): 1000 to 10000 nM

NS(=O)(=O)c1ccc(Cc2c(-c3ccc(F)c(OCc4ccc(C(F)(F)F)o4)c3)nn(-c3nc(C(=O)O)cs3)c2CC2CC2)cc1F [Compound 473, 2-(5-(cyclopropylmethyl)-3-(4-fluoro-3-((5-(trifluoromethyl)furan-2-yl)methoxy)phenyl)-4-(3-fluoro-4-sulfamoylbenzyl)-1H-pyrazol-1-yl)thiazole-4-carboxylic Acid]
IC50 [1, 4]: < 100 nM
IC50 ([2]; Homo sapiens, MIA PaCa-2): < 1000 nM

N=[S+](N)([O-])c1ccc(Cc2c(-c3ccc(F)c(-c4cccc(F)c4)c3)nn(-c3nc(C(=O)O)cs3)c2CC2CC2)cc1F (centres unmarked) [Compound 371]
IC50 [1, 4]: < 100 nM
IC50 [2]: < 1000 nM

NS(=O)(=O)c1ccc(Cc2c(-c3cc(F)cc(-c4ccc(F)cc4)c3)nn(-c3nc(C(=O)O)cs3)c2CC2CC2)cc1 [Compound 479, 2-(5-(cyclopropylmethyl)-3-(4′,5-difluoro-[1,1′-biphenyl]-3-yl)-4-(4-sulfamoylbenzyl)-1H-pyrazol-1-yl)thiazole-4-carboxylic Acid]
IC50 [1, 4]: < 100 nM
IC50 ([2]; Homo sapiens, MIA PaCa-2): < 1000 nM

CC(C)c1cc(-c2nn(-c3nc(C(=O)O)cs3)c(CC3CC3)c2Cc2ccc(S(N)(=O)=O)c(F)c2)ccc1F [Compound 383]
IC50 [1, 4]: < 100 nM
IC50 [2]: < 1000 nM

CCOC(=O)c1csc(-n2nc(-c3ccc(F)c(C#CC4CC4)c3)c(Cc3ccc(S(N)(=O)=O)cc3)c2CC2CC2)n1 [Compound 435]
IC50 [1, 4]: 1000 to 57000 nM
IC50 [2]: > 57000 nM

NS(=O)(=O)c1ccc(Cc2c(-c3cccc(Oc4ccc(C(F)(F)F)cc4)c3)nn(-c3nc(C(=O)O)cs3)c2CC2CC2)cc1 [Compound 481, 2-(5-(cyclopropylmethyl)-4-(4-sulfamoylbenzyl)-3-(3-(4-(trifluoromethyl)phenoxy)-phenyl)-1H-pyrazol-1-yl)thiazole-4-carboxylic Acid]
IC50 [1, 4]: < 100 nM
IC50 ([2]; Homo sapiens, MIA PaCa-2): 1000 to 10000 nM
